In US8008291B2 (Mimetica Pty Ltd, priority 2008, dated 2011) one finds IC50 data, which are given here for eleven compounds.

Each structure is given as a SMILES string. pIC50: −log10 of the molar value.

The target in this assay is T1, human MC5R (hMC5R) (Homo sapiens, UniProt P33032).
T1 construct: purchased Perkin Elmer RBXMC5M400UA
T1 sequence (P33032 whole entry): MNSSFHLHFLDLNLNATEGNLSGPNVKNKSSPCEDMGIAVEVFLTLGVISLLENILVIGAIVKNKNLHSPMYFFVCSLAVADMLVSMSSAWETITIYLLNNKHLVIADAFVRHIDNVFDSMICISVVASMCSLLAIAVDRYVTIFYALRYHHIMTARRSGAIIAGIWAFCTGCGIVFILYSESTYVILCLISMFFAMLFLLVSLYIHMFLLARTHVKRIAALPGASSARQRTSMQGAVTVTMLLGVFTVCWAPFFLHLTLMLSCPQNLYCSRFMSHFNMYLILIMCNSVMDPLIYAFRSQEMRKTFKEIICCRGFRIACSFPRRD
In words: Human MC5R radioligand binding assay (membranes, [125I] NDP-MSH displacement). The following applies: hMC5R binding; tested as trifluoroacetate or hydrochloride salts, or free bases; read-out: MC5R radioligand IC50. A digest of the protocol: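 Frozen human MC5R membranes incubated with test compound and in-house iodogen-labeled, HPLC-purified [125I]NDP-MSH for 1 hr at 37° C. Binding measured as displacement of the radioligand.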
In general, pIC50 refers to −log10 of the IC50, conventionally taken in molar units. In the case of `CC[C@@H](CN1CC[C@@H](CNC(=O)c2ccc3cc(Cl)ccc3c2)N[C@@H](CCN2CCCCC2)C1=O)C(C)C` [Compound 471, 6-chloro-N-(((3S,5S)-1-((R)-2-ethyl-3-methylbutyl)-2-oxo-3-(2-(piperidin-1-yl)ethyl)-1,4-diazepan-5-yl)methyl)-2-naphthamide], the pIC50 was greater than 7.00.
To `CC[C@H](CN1CC[C@@H](CNC(=O)c2ccc3cc(Cl)ccc3c2)N[C@@H](CCN2CCCCC2)C1=O)C(C)C` [Compound 472, 6-chloro-N-(((3S,5S)-1-((S)-2-ethyl-3-methylbutyl)-2-oxo-3-(2-(piperidin-1-yl)ethyl)-1,4-diazepan-5-yl)methyl)-2-naphthamide] belongs greater than 7.00; to `O=C(O)c1ccc2cc(C(=O)NC[C@@H]3CCN(CC(c4ccccc4)c4ccccc4)C(=O)[C@H](CCN4CCCCC4)N3)ccc2c1` [Compound 473, 6-(((3S,5S)-1-(2,2-diphenylethyl)-2-oxo-3-(2-(piperidin-1-yl)ethyl)-1,4-diazepan-5-yl)methylcarbamoyl)-2-naphthoic acid], greater than 6.00.
To `CC[C@H](CN1CC[C@@H](CNC(=O)c2ccc3cc(Cl)ccc3c2)N[C@@H](CCNC(=N)NC(C)C)C1=O)c1ccccc1` [Compound 474, 6-chloro-N-(((3S,5S)-3-(2-(3-isopropylguanidino)ethyl)-2-oxo-1-((S)-2-phenylbutyl)-1,4-diazepan-5-yl)methyl)-2-naphthamide] belongs greater than 8.00; to `C=C(C)C(CC)CN1CC[C@@H](CNC(=O)c2ccc(Cl)c(Cl)c2)N[C@@H](CCN)C1=O` (stereo partly drawn) [Compound 475, N-(((3S,5S)-3-(2-aminoethyl)-1-(2-ethyl-3-methylbut-3-enyl)-2-oxo-1,4-diazepan-5-yl)methyl)-3,4-dichlorobenzamide], greater than 5.00.
With `C=C(C)C(CC)CN1CC[C@@H](CNC(=O)c2ccc(Cl)c(Cl)c2)N[C@@H](CCN2CCCCC2)C1=O` (stereo partly drawn) [Compound 476, 3,4-dichloro-N-(((3S,5S)-1-(2-ethyl-3-methylbut-3-enyl)-2-oxo-3-(2-(piperidin-1-yl)ethyl)-1,4-diazepan-5-yl)methyl)benzamide], the pIC50 was greater than 6.00.
The same measure for `C=C(C)C(CC)CN1CC[C@@H](CNC(=O)c2ccc3cc(Cl)ccc3c2)N[C@@H](CCN)C1=O` (stereo partly drawn) [Compound 477, N-(((3S,5S)-3-(2-aminoethyl)-1-(2-ethyl-3-methylbut-3-enyl)-2-oxo-1,4-diazepan-5-yl)methyl)-6-chloro-2-naphthamide]: greater than 8.00.
The same measure for `C=C(C)[C@@H](CC)CN1CC[C@@H](CNC(=O)c2ccc3cc(Cl)ccc3c2)N[C@@H](CCN2CCCCC2)C1=O` [Compound 478, 6-chloro-N-(((3S,5S)-1-((R)-2-ethyl-3-methylbut-3-enyl)-2-oxo-3-(2-(piperidin-1-yl)ethyl)-1,4-diazepan-5-yl)methyl)-2-naphthamide]: greater than 7.00; for `C=C(C)[C@H](CC)CN1CC[C@@H](CNC(=O)c2ccc3cc(Cl)ccc3c2)N[C@@H](CCN2CCCCC2)C1=O` [Compound 479, 6-chloro-N-(((3S,5S)-1-((S)-2-ethyl-3-methylbut-3-enyl)-2-oxo-3-(2-(piperidin-1-yl)ethyl)-1,4-diazepan-5-yl)methyl)-2-naphthamide]: greater than 8.00; for `N=C(N)NCCC[C@@H]1N[C@H](CNC(=O)c2ccc(-c3ccccc3)cc2)CCN(CC2CCCCC2)C1=O` [Compound 480, N-(((3S,5S)-1-(cyclohexylmethyl)-3-(3-guanidinopropyl)-2-oxo-1,4-diazepan-5-yl)methyl)biphenyl-4-carboxamide]: greater than 6.00.
To `N=C(N)NCCC[C@@H]1N[C@H](CNC(=O)Cc2c[nH]c3ccccc23)CCN(CC2CCCCC2)C1=O` [Compound 481, N-(((3S,5S)-1-(cyclohexylmethyl)-3-(3-guanidinopropyl)-2-oxo-1,4-diazepan-5-yl)methyl)-2-(1 H-indol-3-yl)acetamide] belongs greater than 7.00.
